Measurements as given in patent US5814634A, “Alkylenediamine derivative anti-ulcer drug and antibacterial drug” (Shiseido Co. Ltd., priority 1996, dated 1998).

Columns and labels:
stress ulcer = assay: WIS: Restraint and Water Immersion Stress-Induced Ulcer Inhibition Test; assay type: in vivo, rat (male Crj:SD or Slc:SD); settings: for WIS: ulcer formation inhibitory rate: 100 mg/kg oral, rats, water immersion stress 7 hours
Experimental: WIS: Restraint and Water Immersion Stress-Induced Ulcer Inhibition Test
The degree of inhibition of the stress ulcer formation is tested.
Male Crj:SD or Slc:SD rats (6 to 7-week-old) were fasted overnight, but allowed free access to water. Each group has 5 to 8 of these rats. The sample compound was dissolved or suspended in an aqueous solution of 0.3% sodium carboxymethylcellulose or 0.05% Tween 80 and then was orally administered (100 mg/10 ml/kg). To a control group, the vehicle was administered. 10 minutes later, the rats were placed in a stress cage and immersed to the level of xipfoid process in a water bath (21° C.) for 7 hours. At the end of the stress, the rats were sacrificed by inhalation of ether or carbon dioxide. Then, the stomach of each was removed, inflated by injecting 10 ml of 5% formalin neutral buffer solution, and immersed in 1% formalin neutral buffer solution for 30 minutes or more to be fixed. The stomach was incised along the greater curvature and then the length of each erosion in the glandular portion was determined under dissecting microscope. The sum of the length of erosions per stomach was defined as ulcer index (UI).
The effect obtained when 100 mg/kg of the sample compound had been administered was expressed as ulcer formation inhibitory rate (%) as follows: [formula] VOL, TAO: Acid Secretion Inhibition Test In Vivo i) Meaning

Male Slc:ICR mice = tested on: Male Slc:ICR mice; set-up: species or system mouse (male Slc:ICR); settings: mouse, in vivo
Experimental: AT: Single Dose Toxicity Pretest
Male Slc:ICR mice (5-week-old) were used. Each group has 3 to 5 mice and each mouse was fasted, but allowed free access to water, for 4 to 5 hours from 9 a.m. in the test day. Then, 2,000 mg/10 ml/kg of the sample compound dissolved or suspended in an aqueous solution of 0.5% sodium carboxymethyl cellulose was orally administered thereto. To a control, only the vehicle was administered. […] The body weight was measured before and after the fasting as well as at the same time everyday. The dead animals were immediately subjected to autopsy and their organs were observed microscopically. Also, the living animals were sacrificed with ether or carbon dioxide one week after the administration and then their organs were observed microscopically.
The toxicity at the single dose of 2,000 mg/kg of the sample compound was expressed as being classified into 5 levels.
5: Mortality rate is 0%; no toxicity is found at all both in behavior and organs.
4: Mortality rate is 0%; while no toxicity is found in organs, slight toxicity is observed in behavior and body weight increase.
3: While there is a dead animal (though not all the animals are dead), no toxicity is found in organs.
2: Regardless of whether there is a dead animal or not, toxicity is found in organs.
1: All the animals are dead.

in vitro = settings: rabbit, gastric mucosal cells

CC(C)=CCC/C(C)=C\COc1ccc(C(=O)NCCN2CCCCC2)cc1 [Example 2]
WIS: ulcer formation inhibitory rate (stress ulcer): 79% | AT: toxicity at single dose, 5 levels (Male Slc:ICR mice): 3

CC(C)=CCC/C(C)=C/COc1cccc(C(=O)NCCN2CCCCC2)c1 [Example 4]
WIS: ulcer formation inhibitory rate (stress ulcer): 84% | AT: toxicity at single dose, 5 levels (Male Slc:ICR mice): 3

CC(C)=CCC/C(C)=C/COc1ccc(F)cc1C(=O)NCCN1CCCCC1 [Example 6]
WIS: ulcer formation inhibitory rate (stress ulcer): 80% | effect (anti-ulcer tests) (stress ulcer; result in words, comparison of examples within compound group 1-1): the effect has been maintained | AT: toxicity at single dose, 5 levels (Male Slc:ICR mice): 3 | cytotoxicity at 4 h, 100 µM (in vitro): 16%

CC(C)=CCC/C(C)=C/COc1cc(OC/C=C(\C)CCC=C(C)C)cc(C(=O)NCCN2CCCCC2)c1 [Example 14]
WIS: ulcer formation inhibitory rate (stress ulcer): 66% | AT: toxicity at single dose, 5 levels (Male Slc:ICR mice): 3 | cytotoxicity at 4 h, 100 µM (in vitro): 26%

CC(C)=CCOc1cc(C(=O)NCCN2CCCCC2)cc(OCC=C(C)C)c1OCC=C(C)C [Example 19]
WIS: ulcer formation inhibitory rate (stress ulcer): 57% | AT: toxicity at single dose, 5 levels (Male Slc:ICR mice): 4

COc1ccc(OC/C=C(\C)CCC=C(C)C)c(C(=O)NCCN2CCCCC2)c1 [Example 20]
WIS: ulcer formation inhibitory rate (stress ulcer): 71% | AT: toxicity at single dose, 5 levels (Male Slc:ICR mice): 3 | cytotoxicity at 4 h, 100 µM (in vitro): 35%

COc1ccc(C(=O)NCCN2CCCCC2)cc1OC/C=C(\C)CCC=C(C)C [Example 23]
WIS: ulcer formation inhibitory rate (stress ulcer): 56% | AT: toxicity at single dose, 5 levels (Male Slc:ICR mice): 3 | cytotoxicity at 4 h, 100 µM (in vitro): 43%

COc1cc(C(=O)NCCN2CCCCC2)cc(OC/C=C(\C)CCC=C(C)C)c1OC [Example 24]
WIS: ulcer formation inhibitory rate (stress ulcer): 72% | anti-ulcer effect (stress ulcer; result in words): more anti-ulcer effect | AT: toxicity at single dose, 5 levels (Male Slc:ICR mice): 5 | cytotoxicity at 4 h, 100 µM (in vitro): 30%

COc1cc(C(=O)NCCN2CCCCC2)ccc1OC/C=C(\C)CCC=C(C)C [Example 25]
WIS: ulcer formation inhibitory rate (stress ulcer): 44% | AT: toxicity at single dose, 5 levels (Male Slc:ICR mice): 3 | cytotoxicity at 4 h, 100 µM (in vitro): 48%

CC(C)=CCOc1cc(C(=O)NCCN2CCOCC2)cc(OCC=C(C)C)c1OCC=C(C)C [Example 39]
WIS: ulcer formation inhibitory rate (stress ulcer): 76% | AT: toxicity at single dose, 5 levels (Male Slc:ICR mice): 4
